In patent publication US9000162B2, “5,8-difluoro-4-(2-(4-(heteroaryloxy)-phenyl)ethylamino)quinazolines and their use as agrochemicals” (Dow AgroSciences LLC, priority 2008, dated 2015):

Experiments:
Format in all cases: in vivo
[1] = tested on: Pseudoperonospora cubensis (PSPECU); experiment: Cucumber downy mildew foliar protectant test; conditions: 200 ppm foliar, inoculated one day after treatment, read-out: Activity against fungal diseases PSPECU
Experimental: The plants were inoculated with the fungus one day after treatment. ***=80-100% control; **=50-79% control; *=0-49% control. It will be understood by those in the art that the efficacy of the compounds against the foregoing fungi establishes the general utility of the compounds as fungicides. The activity of the compounds as effective fungicides was determined by applying the compounds to plants and observing control of fungal disease. […] All plants were inoculated with spores of the fungus the day after treatment, then incubated in an environment conducive to disease development. Disease severity was evaluated 4 to 25 days later, depending on the speed of disease development. The following experiments were performed in the laboratory to determine the fungicidal efficacy of the compounds of the invention. Cucumber Downy Mildew (Causal Agent Pseudoperonospora cubensis; Bayer Code […]): Cucumber plants (variety “Bush Champion' or 'Bush Pickle Hybrid') were grown from seed in a soil-less peat-based potting mixture (Metromix) until the first true leaf was 20-80% expanded. Each pot contained 1 seedling. These plants were sprayed until wet with the formulated test compound. On the following day, the leaves were inoculated with an aqueous suspension of downy mildew sporangia and the plants were kept in high humidity for one day to permit sporangia to germinate and infect the leaf. The plants were then incubated in a growth chamber until disease developed on untreated control plants. Table 1 presents the activity of typical compounds of the present invention when evaluated in these experiments. The effectiveness of the test compounds at controlling disease when sprayed on leaves was determined by assessing the severity of disease on treated plants, then converting the severity to percent control based on the level of disease on untreated, inoculated plants.

[2] = tested on: Puccinia recondita tritici (PUCCRT); experiment: Leaf rust of wheat foliar protectant test; conditions: 200 ppm foliar, inoculated one day after treatment, read-out: Activity against fungal diseases PUCCRT
Experimental: (§1) The plants were inoculated with the fungus one day after treatment. ***=80-100% control; **=50-79% control; *=0-49% control. It will be understood by those in the art that the efficacy of the compounds against the foregoing fungi establishes the general utility of the compounds as fungicides. The activity of the compounds as effective fungicides was determined by applying the compounds to plants and observing control of fungal disease. […] All plants were inoculated with spores of the fungus the day after treatment, then incubated in an environment conducive to disease development. Disease severity was evaluated 4 to 25 days later, depending on the speed of disease development. The following experiments were performed in the laboratory to determine the fungicidal efficacy of the compounds of the invention. […] Each pot contained 3-8 seedlings. These plants were sprayed until wet with the formulated test compounds. On the following day, the leaves were inoculated with an aqueous spore suspension of Puccinia recondita tritici and the plants were kept in high humidity overnight to permit spores to germinate and infect the leaf. The plants were then transferred to a greenhouse until disease developed on untreated control plants. Table 1 presents the activity of typical compounds of the present invention when evaluated in these experiments. The effectiveness of the test compounds at controlling disease when sprayed on leaves was determined by assessing the severity of disease on treated plants, then converting the severity to percent control based on the level of disease on untreated, inoculated plants.

[3] = tested on: Magnaporthe grisea = Pyricularia oryzae (PYRIOR); experiment: whole plant or invertebrate; conditions: foliar, read-out: Activity against fungal diseases PYRIOR
[4] = tested on: Septoria tritici (SEPTTR); experiment: Septoria blotch of wheat foliar protectant test; conditions: Zymoseptoria tritici, read-out: Activity against fungal diseases SEPTTR; for pest or weed control at 200 ppm: 200 ppm foliar, inoculated one day after treatment; for pest or weed control at 25 ppm: foliar, Tested at 25 ppm (footnote b)
Experimental: as §1, with “3-10” for “3-8”, “compound.” for “compounds.”, “Septoria” for “Puccinia recondita”, “(one day in a dark dew chamber followed by three days in a lighted dew chamber)” for “overnight”

Compound | pest or weed control at 200 ppm [1] [%] | pest or weed control at 200 ppm [2] [%] | pest or weed control at 200 ppm [3] [%] | pest or weed control at 200 ppm [4] [%] | pest or weed control at 25 ppm [4] [%] | pest or weed control at 3 ppm [3] [%]
Oc1ccc(CCNc2ncnc3c(F)ccc(F)c23)cc1F [Compound 47] | 0 to 49 | 0 to 49 | 50 to 79 | 0 to 49 | – | –
CC(C)Oc1cc(CCNc2ncnc3c(F)ccc(F)c23)ccc1Oc1cc(C(F)(F)F)ccn1 [Compound 58] | 80 to 100 | 80 to 100 | 80 to 100 | 80 to 100 | – | –
COc1ccc(CCNc2ncnc3c(F)ccc(F)c23)cc1C [Compound 21] | 80 to 100 | 50 to 79 | 50 to 79 | – | 0 to 49 | –
CC(F)(F)c1ccnc(Oc2ccc(CCNc3ncnc4c(F)ccc(F)c34)cc2)c1 [Compound 12] | 80 to 100 | 80 to 100 | 80 to 100 | 80 to 100 | – | –
C=Cc1cc(CCNc2ncnc3c(F)ccc(F)c23)ccc1Oc1cc(C(F)(F)F)ccn1 [Compound 65] | 80 to 100 | 80 to 100 | 80 to 100 | 80 to 100 | – | –
Cc1cc(CCNc2ncnc3c(F)ccc(F)c23)ccc1Oc1c(Cl)cnc(C(F)(F)F)c1Cl [Compound 79] | 50 to 79 | 80 to 100 | 80 to 100 | 80 to 100 | – | –
Oc1cc(CCNc2ncnc3c(F)ccc(F)c23)ccc1Oc1cc(C(F)(F)F)ccn1 [Compound 56] | 80 to 100 | 80 to 100 | 80 to 100 | 50 to 79 | – | –
Oc1ccc(CCNc2ncnc3c(F)cc(F)c(F)c23)cc1Cl [Compound 88] | 80 to 100 | 0 to 49 | 0 to 49 | 0 to 49 | – | –
Oc1ccc(CCNc2ncnc3c(F)ccc(F)c23)cc1Cl [Compound 87] | 50 to 79 | 0 to 49 | 0 to 49 | 0 to 49 | – | –
Fc1nc(C(F)(F)F)nc(Oc2ccc(CCNc3ncnc4c(F)ccc(F)c34)cc2)c1F [Compound 100] | 80 to 100 | 0 to 49 | 0 to 49 | 0 to 49 | – | –
COc1cc(CCNc2ncnc3c(F)ccc(F)c23)ccc1Oc1ccc(C(F)(F)F)cn1 [Compound 52] | 80 to 100 | 80 to 100 | 80 to 100 | 80 to 100 | – | –
COc1cc(CCNc2ncnc3c(F)ccc(F)c23)ccc1Oc1c(Cl)cnc(C(F)(F)F)c1Cl [Compound 69] | 80 to 100 | 80 to 100 | 80 to 100 | 80 to 100 | – | –
COc1ccc(CCNc2ncnc3c(F)ccc(F)c23)c(C)c1C [Compound 20] | 80 to 100 | 80 to 100 | 50 to 79 | 50 to 79 | – | –
COc1cc(CCNc2ncnc3c(F)ccc(F)c23)ccc1Oc1ncc(C(F)(F)F)cc1F [Compound 45] | 80 to 100 | 80 to 100 | 0 to 49 | 80 to 100 | – | –
Fc1cc(Oc2ncc(C(F)(F)F)cc2F)ccc1CCNc1ncnc2c(F)ccc(F)c12 [Compound 122] | 80 to 100 | 80 to 100 | 50 to 79 | – | 80 to 100 | –
COc1ccc(CCNc2ncnc3c(F)ccc(F)c23)cc1Cl [Compound 85] | 80 to 100 | 0 to 49 | 50 to 79 | 0 to 49 | – | –
Fc1ccc(F)c2c(NCCc3ccc(Oc4cc(C(F)(F)F)ccn4)c(Br)c3)ncnc12 [Compound 39] | 80 to 100 | 80 to 100 | 80 to 100 | – | 80 to 100 | –
Cc1cc(CCNc2ncnc3c(F)ccc(F)c23)ccc1Oc1cc(C(F)(F)F)ccn1 [Compound 25] | 80 to 100 | 80 to 100 | 80 to 100 | 80 to 100 | – | –
COc1cc(CCNc2ncnc3c(F)ccc(F)c23)ccc1Oc1cc(C(F)(F)F)cc[n+]1[O-] [Compound 59] | 80 to 100 | 80 to 100 | 80 to 100 | 80 to 100 | – | –
Cc1cc(CCNc2ncnc3c(F)ccc(F)c23)ccc1Oc1ccncc1C(F)(F)F [Compound 37] | 80 to 100 | 80 to 100 | – | – | 50 to 79 | 80 to 100
Cc1cc(Oc2cc(C(F)(F)F)ccn2)c(C)cc1CCNc1ncnc2c(F)ccc(F)c12 [Compound 19] | 80 to 100 | 80 to 100 | 80 to 100 | 80 to 100 | – | –
Cc1cc(Oc2cc(C(F)(F)F)ccn2)ccc1CCNc1ncnc2c(F)ccc(F)c12 [Compound 55] | 80 to 100 | 80 to 100 | 80 to 100 | 80 to 100 | – | –
COc1cc(CCNc2ncnc3c(F)ccc(F)c23)ccc1Oc1c(Cl)cnc(C(Cl)(Cl)Cl)c1Cl [Compound 89] | 50 to 79 | 80 to 100 | 50 to 79 | 50 to 79 | – | –
Cc1cc(CCNc2ncnc3c(F)cc(F)c(F)c23)ccc1O [Compound 70] | 0 to 49 | 50 to 79 | 50 to 79 | 50 to 79 | – | –
COc1cc(CCNc2ncnc3c(F)cc(F)c(F)c23)ccc1Oc1cc(C(F)(F)F)ccn1 [Compound 34] | 80 to 100 | 80 to 100 | 80 to 100 | 80 to 100 | – | –
Oc1ccc2c(c1)CC(Nc1ncnc3c(F)ccc(F)c13)C2 (centres unmarked) [Compound 106] | 50 to 79 | 50 to 79 | 50 to 79 | 0 to 49 | – | –
Fc1ccc(F)c2c(NC3Cc4ccc(Oc5ccc(C(F)(F)F)cn5)cc4C3)ncnc12 (centres unmarked) [Compound 111] | 80 to 100 | 80 to 100 | 80 to 100 | 80 to 100 | – | –
COc1cc(CCNc2ncnc3c(F)ccc(F)c23)ccc1Oc1ccnc(Cl)c1 [Compound 108] | 0 to 49 | 80 to 100 | 0 to 49 | 80 to 100 | – | –
CCCOc1cc(CCNc2ncnc3c(F)ccc(F)c23)ccc1Oc1cc(C(F)(F)F)ccn1 [Compound 57] | 80 to 100 | 80 to 100 | 80 to 100 | 80 to 100 | – | –
